Assay results reported in patent US20260217677A1, “ORGANIC COMPOUNDS AS NLRP3 INHIBITORS” (KODIAK SCIENCES, INC., priority 2023, published 2026).

The compounds below were run on IL-1β release in U937 cells after NLRP3 activation (assay: IL-1β release inhibition in U937 cells (MSD V-Plex)). Conditions: Homo sapiens, U-937, read-out: IL-1β IC50, Table 4; PMA-differentiated U937 cells, 1 μg/mL LPS 3 h, compound 30 min, 10 mM nigericin 1 h.

| SMILES | IC50 [nM] |
| --- | --- |
| Cc1cc(N[C@@H]2CCCN(CCNCC3CCS(=O)(=O)CC3)C2)nnc1-c1ccc(C(F)(F)F)cc1O [Example 109, (R)-4-(((2-(3-((6-(2-Hydroxy-4-(trifluoromethyl)phenyl)-5-methylpyridazin-3-yl)amino)piperidin-1-yl)ethyl)amino)methyl)tetrahydro-2H-thiopyran 1,1-dioxide] | 5 to 50 |
| Cc1cc(N[C@@H]2CCCN(CC(=O)N3CCN[C@H](C)C3)C2)nnc1-c1ccc(C(F)(F)F)cc1O [Example 110, 2-((R)-3-((6-(2-Hydroxy-4-(trifluoromethyl)phenyl)-5-methylpyridazin-3-yl)amino)piperidin-1-yl)-1-((R)-3-methylpiperazin-1-yl)ethan-1-one] | 5 to 50 |
| Cc1cc(N[C@@H]2CCCN(CC(=O)N3CCN[C@@H](C)C3)C2)nnc1-c1ccc(C(F)(F)F)cc1O [Example 111, 2-((R)-3-((6-(2-Hydroxy-4-(trifluoromethyl)phenyl)-5-methylpyridazin-3-yl)amino)piperidin-1-yl)-1-((S)-3-methylpiperazin-1-yl)ethan-1-one] | 5 to 50 |
| Cc1cc(N[C@@H]2CCCN(CC(=O)N3C[C@H]4CNC[C@H]4C3)C2)nnc1-c1ccc(C(F)(F)F)cc1O [Example 112, 1-((3aR,6aS)-Hexahydropyrrolo[3,4-c]pyrrol-2 (1H)-yl)-2-((R)-3-((6-(2-hydroxy-4-(trifluoromethyl)phenyl)-5-methylpyridazin-3-yl)amino)piperidin-1-yl)ethan-1-one] | 5 to 50 |

Further lines, results first:

| IC50 [nM] | SMILES |
| --- | --- |
| 5 to 50 | Cc1cc(N[C@@H]2CCCN(C[C@@H]3CCCN3)C2)nnc1-c1ccc(C(F)(F)F)cc1O [Example 106, 2-(4-Methyl-6-(((R)-1-(((S)-pyrrolidin-2-yl)methyl)piperidin-3-yl)amino)pyridazin-3-yl)-5-(trifluoromethyl)phenol] |
| 5 to 50 | Cc1cc(N[C@@H]2CCCN(C[C@H]3CCCN3)C2)nnc1-c1ccc(C(F)(F)F)cc1O [Example 107, 2-(4-Methyl-6-(((R)-1-(((R)-pyrrolidin-2-yl)methyl)piperidin-3-yl)amino)pyridazin-3-yl)-5-(trifluoromethyl)phenol] |
| 5 to 50 | Cc1cc(N[C@@H]2CCCN(CCNCC3COC3)C2)nnc1-c1ccc(C(F)(F)F)cc1O [Example 108, (R)-2-(4-Methyl-6-((1-(2-((oxetan-3-ylmethyl)amino)ethyl)piperidin-3-yl)amino)pyridazin-3-yl)-5-(trifluoromethyl)phenol] |
| < 5 | Cc1cc(N[C@@H]2CCCN(CC(=O)N3CCNCC3)C2)nnc1-c1ccc2sccc2c1O [Example 113, (R)-2-(3-((6-(4-hydroxybenzo[b]thiophen-5-yl)-5-methylpyridazin-3-yl)amino)piperidin-1-yl)-1-(piperazin-1-yl)ethan-1-one] |
| < 5 | Cc1cc(N[C@@H]2CCCN(C3CNC3)C2)nnc1-c1ccc2sccc2c1O [Example 114, (R)-5-(6-((1-(azetidin-3-yl)piperidin-3-yl)amino)-4-methylpyridazin-3-yl)benzo[b]thiophen-4-ol] |
